From a melting point compilation (Tetko et al.; mined from patent text by program, amines drawn as free bases though some values may be those of a salt)

Row | SMILES | melting point [°C]
1 | CC1CNCCNCCNCCNCCN1 (stereo unspecified) | 73 to 75
2 | CS(=O)(=O)c1nc(N)c2ncn(C3CCCCC3)c2n1 | 272 to 274
3 | O=[N+]([O-])c1ccc(CCN2CCN(C3CCc4ccccc4C3O)CC2)cc1 (stereo unspecified) | 155 to 159
4 | Nc1nc(C(F)(F)C(F)(F)F)nn1-c1c(Cl)cc(C(F)(F)F)cc1Cl | 181 to 183
5 | CN1CCN(S(=O)(=O)CCCO)CC1 | 90 to 93
6 | CCN(CC)CCN1C(=O)c2ccc(NC(C)=O)cc2Oc2cc(C(F)(F)F)ccc21 | 75 to 85
7 | O=C1C[C@@H]2[C@@H](CC[C@@H](O)COc3cccc(Cl)c3)[C@H](O)C[C@@H]2O1 | 102 to 104
8 | O=c1[nH]c2ccc3cccnc3c2o1 | > 300
9 | COc1cc2c(c(OC(C)=O)c1)C1CCC3(C)C(OC(C)=O)CCC3C1CC2 (stereo unspecified) | 120 to 121
10 | CN(C)CC1CNc2ccccc2C1 (stereo unspecified) | 85 to 89
11 | CCN(C(=O)OC(C)(C)C)C(Cc1ccccc1)C(=O)NC(CCSC)C(=O)NCC(=O)NC(Cc1ccccc1)C(=O)NC1C2CC3CC(C2)CC1C3 (stereo unspecified) | 175 to 178
12 | O=C(C1CCN(CCO)CC1)N1CCN2C(=O)OC(c3ccccc3)(c3ccccc3)C2C1 (stereo unspecified) | 160 to 162
13 | N=C(NC(=O)Nc1ccccc1[N+](=O)[O-])c1ccccc1 | 144 to 146
14 | Cc1cc(NCc2ccccc2)n(C)n1 | 95 to 97
15 | CN(C)C(=O)C1Cc2c([nH]c3ccccc23)C(c2ccc3c(c2)OCO3)N1C(=O)C=Cc1ccccc1 (stereo unspecified) | 175 to 178
16 | COc1cc2c(cc1Nc1ncc(Cl)c(Nc3ccccc3S(=O)(=O)N(C)C)n1)CCN(CCO)CC2 | 150 to 152
17 | Cn1nc(-c2ccc(F)cc2F)cc1C(F)(F)F | 51
18 | COc1cc(C(=O)NS(=O)(=O)c2ccccc2Cl)ccc1Cc1c(Cl)n(C)c2ccc(CC3CCN(C)C3=O)cc12 (stereo unspecified) | 126 to 134
19 | Clc1cc(N2CCCC2)nc(NC23CC4CC(CC(C4)C2)C3)n1 | 178 to 180
20 | CCC(O)(c1ccc(OCCCc2ccccc2)cc1)c1ccccc1OC (stereo unspecified) | 75 to 76
21 | O=C(CCCN1CCN(c2noc3cc(OC(=O)C45CC6CC(CC(C6)C4)C5)ccc23)CC1)c1ccc(F)cc1 | 157 to 158
22 | c1cc2cc(-c3cnc(O[C@H]4CCN5CCC[C@@H]4C5)nc3)ccc2[nH]1 | 195 to 199

Row | SMILES | melting point [°C]
23 | FC(F)Sc1nnc(-c2cnccn2)s1 | 113 to 115
24 | COc1c(C)cc([N+](=O)[O-])c(NC(C)C)c1[N+](=O)[O-] | 77.5 to 79
25 | CC(C)c1nc(Cl)c([N+](=O)[O-])c(Cl)n1 | 32
26 | CCCCC(CC)CNC(=O)c1cc(C(C)(C)C)c(O)c(C(C)(C)C)c1 (stereo unspecified) | 136 to 140
27 | COC(=O)[C@H]1CC[C@@H](c2c(-c3ccccc3)n(C)c3ccccc32)CC1 | 141 to 142
28 | CCc1nc2c(C)cc(C)nc2n1-c1ccc(CC(C)NC(=O)NS(=O)(=O)c2ccc(C)cc2)cc1 (stereo unspecified) | 128
29 | Cc1nc(-n2cc(CCc3ccccc3)nn2)sc1C(=O)NCc1ccccc1 | 167 to 170
30 | Cc1cc2c(nc(C)n2CCc2ccccc2)c(N(Cc2ccccc2)Cc2ccccc2)n1 | 124 to 126
31 | COc1cc([N+](=O)[O-])c(C(=O)Cc2ccccc2)cc1O | 142 to 143
32 | COC1CC(c2ccc(-c3ccc(C#N)cc3)cc2)C(OC)O1 (stereo unspecified) | 149 to 150
33 | COC(=O)[C@@H](N=[N+]=[N-])[C@@H](O)c1ccccc1 | 40 to 41
34 | COC(=O)CCC(=O)Nc1cccc(OCc2cc3ccccc3o2)c1 | 112 to 113
35 | CC#CC(C)(C)NC(=O)C(CC)Oc1ccc2ncc(C#N)cc2c1 (stereo unspecified) | 116 to 118
36 | CC(C)(C)OC(=O)C1CCCN2CC(CBr)C(=O)N12 (stereo unspecified) | 88 to 89
37 | CC(=O)Oc1cccc(C(=O)Nc2nc(S(C)(=O)=O)cs2)c1 | 209 to 212
38 | CCOc1cc2ncc(C#N)c(Nc3ccc(OCc4ccccc4)c(Cl)c3)c2cc1NC(=O)CC(CN(C)C)N(C)C (stereo unspecified) | 102 to 104
39 | CC(C)c1csc(/C=C/c2cccc(OCCC(C)(C)C(=O)O)c2)n1 | 112 to 113
40 | CC(C)C[C@H](NC(=O)OC(C)(C)C)[C@H](O)c1nccs1 | 121 to 122
41 | Cc1ccccc1-c1c(NC(=O)OC(C)(C)C)c(=O)oc2cc3c(cc12)CCC3 | 154 to 155
42 | CCCn1nc2c(O)nc3ccccc3c2c1CC(C)(C)O | 294 to 296
43 | Cc1cc2c(cc1C)C(=O)CCC2 | 47 to 48

The next lines start with the values.

Row | melting point [°C] | SMILES
44 | 123 to 124 | Cc1sc(-c2ccccc2)nc1COc1cc(COc2ncccc2C=O)on1
45 | 146 to 149 | CCOC(=O)N(C)c1cccc(-c2ccc3nnc(C)n3n2)c1
46 | > 30 | Cn1c(-c2ccccc2)cc(=O)c2cc(C(=O)O)ccc21
47 | 126 to 129 | CCOC(=O)c1cc(Cl)c(S(C)(=O)=O)c(-c2cc(C)no2)c1C
48 | 203 to 206 | CS(=O)(=O)c1ccc(-c2nc(C(F)(F)F)nc(NN)c2-c2ccc(S(=O)(=O)NN)cc2)cc1
49 | 103 to 104 | CCOC(=O)c1nc(-c2ccc(Cl)cc2)c(F)c(N)c1Cl
50 | 133 to 134 | CCOC(=O)/C(=N\OCc1ccccc1)c1csc(N)n1
51 | 123 to 124 | Cc1ccc(Cl)c(C2CC(=O)c3c(C)ccnc3C2)c1 (stereo unspecified)
52 | 62 to 65 | CCOC(=O)c1c(C)nc2c(nc(C)n2CC)c1OCC
53 | 221 to 222 | Cc1ccc(S(=O)(=O)N(C)c2ccccc(N)c2=O)cc1
54 | 202 to 204 | COc1nc(C)cnc1NS(=O)(=O)c1ccccc1-c1ccc(CC(C)(C)C(=O)O)cc1
55 | 269 to 271 | O=Cc1c2ccc(Cl)cc2c(Cl)c2ccc(Cl)cc12
56 | 75 to 78 | O=C(O)CCCCCCc1ccc(Cl)cc1
57 | 227 to 228 | CC(C)(C(N)=O)n1cc(-c2ccc(Oc3ccccc3)cc2)c2c(N)ncnc21
58 | 217 to 218 | COc1cccc(OC)c1C(=O)Oc1cc([N+](=O)[O-])cc([N+](=O)[O-])c1O
59 | 162 to 163 | Cc1cc(Cc2cnc(N)nc2N)cc(C)c1N(C)C
60 | 171 to 173 | CCOc1ccccc1C(=O)NCCN1CCC(O)(c2ccc(Cl)cc2)CC1
61 | 165 to 167 | CS(=O)c1ccc(Oc2ccc(Cl)c(Cl)c2)nc1C#N (stereo unspecified)
62 | 161 to 163 | Cn1c(C(F)(F)F)cc(Cl)c(-c2ccc(Cl)c(NS(C)(=O)=O)c2)c1=O
63 | 208 to 209 | O=C(O)COc1ccc(Cl)cc1-c1ccc(S(=O)(=O)N2CCOCC2)c(C(F)(F)F)c1
64 | 110 | CCOC(=O)Nc1ccc(Cl)nc1
65 | 204 to 206 | COc1cc(N)c(Cl)cc1C(=O)NCC1CCN(CCCCCNC(=O)Nc2ccc(Cl)cc2)CC1
66 | 202 to 204 | N#Cc1cnc2sc(-c3ccccc3)cc2c1Cl
67 | 207 to 208 | CCOC(=O)c1ccc(-c2nc(O)c(C)s2)cc1
68 | 148 | COc1ccc(C2=C(c3ccc(S(C)(=O)=O)cc3)C(C)(C)OC2=O)cc1
69 | 190 to 192 | CCOC(=O)C1=CNc2ccc(C(F)(F)F)cc2CC1c1ccccc1Cl (stereo unspecified)
70 | 197 to 199 | Cn1nc(-c2c(Cl)cccc2Cl)nc1-c1sc(Br)c(Cl)c1Cl
71 | 230 to 234 | O=Cc1ccc(-c2ccc3ncnc(Nc4ccc(OCc5cccc(F)c5)c(Cl)c4)c3c2)o1
